The values that follow come from patent US12286435B2, “Compound having benzo seven-membered ring structure, preparation method therefor, and use thereof” (BIONNA (BEIJING) MEDICAL TECHNOLOGY CO., LTD., priority 2019, dated 2025).

In one test the target is BRD4 BD1 protein (Homo sapiens (Human), UniProt O60885). Kind of test: Fluorescence polarization binding affinity (Ki) with BRD4 BD1 protein. Particulars: fluorescence polarization; Ki calculated from IC50.
The next test addresses BRD4 BD2 protein (Homo sapiens (Human), UniProt O60885). Kind of test: Fluorescence polarization binding affinity (Ki) with BRD4 BD2 protein. To be noted: fluorescence polarization; Ki calculated from IC50.
Test [1] deals with multiple myeloma MM.1S cell line. Kind of test: Cell viability (CCK-8), multiple myeloma MM.1S. The class given is cell-based. Particulars: MM.1S cells, 4 days, CCK-8, 50% inhibition of cell growth. As for the experimental part: 3. Determination of cell viability of the compound
The sample to be tested was dissolved with 100% dimethyl sulfoxide to prepare a 20 mM stock solution of the compound, which was diluted with 100% dimethyl sulfoxide to the highest compound concentration required for the experiment (2.5 mM).
First, 145 uL of a complete cell culture medium was added to wells B1-G1 of a 96-well flat-bottomed tansparent cell culture plate, and 100 uL of the complete medium was added to wells B2-G12, respectively. Then, 5 uL of the 2.5 mM solution of the compound was added to wells B1-D1 and E1-G1 respectively, and then diluted gradiently by 3-folds to B12-D12 and E12-G12 in sequence. Finally, 50 uL of the solution of the cells to be tested was added to each well, with about 3000-5000 cells per well, and a total volume of 150 uL per well.
In the experiment, in addition to the tested compound, two other control groups were set up: 1) a control group adding the cells and the complete medium, but without adding the compound; 2) a control group adding the complete medium only, without adding the cells and the compound. The 96-well plate was placed in a 37° C. cell culture incubator containing 5% carbon dioxide for 4 days, added with 15 uL of a CCK-8 reagent per well, and then incubated at 37° C. for 2-4 hours. The 96-well plate was read on a TECAN microplate reader, and the absorbance value at 450 nm wavelength was taken.
The effect of different concentrations of the compound on cell viability was calculated by the following equation: [absorption value of the experimental group−absorption value of pure cell culture medium without the cells or the compound]/[absorption value of the control group with the tumor cells but no testing compound−absorption value of pure cell culture medium without the cell or the compound]×100%.
The above data were precessed by software, and the IC50 value was the concentration of the compound corresponding to the 50% inhibition rate of cell growth.
Based on the above test method of the compound on cell viability, a variety of […] cancer cell lines were tested, using multiple myeloma MM.1S, breast cancer MDA-MB-231 and leukemia MV4-11 cell lines as exemples. Using this test method, the IC50 values of partial compounds in the examples of the present invention measured in multiple myeloma MM.1S, breast cancer MDA-MB-231 cell lines and leukemia MV4-11 cell lines were shown in Table 2.

For `Cc1nnn2c1-c1ccc(-c3cnn(C)c3)cc1C(Nc1ccc(OCCO)cc1)CC2` (stereo not shown) [LB68, 2-(4-((1-methyl-9-(1-methyl-1H-pyrazol-4-yl)-6,7-dihydro-5H-benzo[c][1,2,3]triazolo[1,5-a]azepin-7-yl)amino)phenoxy)ethanol], the Ki was 68.5 nM at BRD4 BD1 protein and 13 nM at BRD4 BD2 protein. Moreover, in test [1] (Homo sapiens, MM1.S, 96 h), the IC50 was determined as 112 nM.

As to `Cc1nnn2c1-c1ccc(-c3cnn(C)c3)cc1C(Nc1cccc(OCCO)c1)CC2` (stereo not shown) [LB77, 2-(3-((1-methyl-9-(1-methyl-1H-pyrazol-4-yl)-6,7-dihydro-5H-benzo[c][1,2,3]triazolo[1,5-a]azepin-7-yl)amino)phenoxy)ethanol], the results for the Ki at BRD4 BD1 protein and at BRD4 BD2 protein were 99.9 nM and 6 nM, respectively. For the same compound, the IC50 in test [1] (Homo sapiens, MM1.S, 96 h) stood at 71.7 nM.

Turning to `Cc1nnn2c1-c1ccc(-c3cnn(C)c3)cc1C(Nc1ccc(C(O)(C(F)(F)F)C(F)(F)F)cc1)CC2` (stereo not shown) [LB83, 1,1,1,3,3,3-hexafluoro-2-(4-((1-methyl-9-(1-methyl-1H-pyrazol-4-yl)-6,7-dihydro-5H-Benzo[c][1,2,3]triazolo[1,5-a]azepin-7-yl)amino)phenyl)propan-2-ol], the values for the Ki on BRD4 BD1 protein and at BRD4 BD2 protein were 180 nM and 38.4 nM, respectively. The IC50 in test [1] (Homo sapiens, MM1.S, 96 h) came out at 250 nM.

Take `Cc1nnn2c1-c1ccc(-c3cnn(C)c3)cc1C(Nc1cccc3ncccc13)CC2` (stereo not shown) [LB86, 1-methyl-9-(1-methyl-1H-pyrazol-4-yl)-N-(quinolin-5-yl)-6,7-dihydro-5H-benzo[c][1,2,3]triazolo[1,5-a]azepin-7-amine]: the Ki on BRD4 BD1 protein is 56 nM; on BRD4 BD2 protein, 14 nM. Also, the midpoint of inhibition in test [1] (Homo sapiens, MM1.S, 96 h), the IC50, lay at 45.1 nM.

As for `Cc1nnn2c1-c1ccc(-c3cnn(C)c3)cc1C(Nc1ccc3ncccc3c1)CC2` (stereo not shown) [LB88, 1-methyl-9-(1-methyl-1H-pyrazol-4-yl)-N-(quinolin-6-yl)-6,7-dihydro-5H-benzo[c][1,2,3]triazolo[1,5-a]azepin-7-amine], the Ki was 137 nM on BRD4 BD1 protein and 15.1 nM at BRD4 BD2 protein. In addition, inhibition in test [1] (Homo sapiens, MM1.S, 96 h) was half-maximal at 24.3 nM (IC50).

With `Cc1nnn2c1-c1ccc(-c3cnn(C)c3)cc1C(Nc1ccc3cccnc3c1)CC2` (stereo not shown) [LB89, 1-methyl-9-(1-methyl-1H-pyrazol-4-yl)-N-(quinolin-7-yl)-6,7-dihydro-5H-benzo[c][1,2,3]triazolo[1,5-a] azepin-7-amine], the Ki is 426 nM on BRD4 BD1 protein and 50.5 nM on BRD4 BD2 protein. In test [1] (Homo sapiens, MM1.S, 96 h), this compound came in with an IC50 of 143 nM.

Regarding `Cc1nnn2c1-c1ccc(-c3cnn(C)c3)cc1C(Nc1ccccc1OCCO)CC2` (stereo not shown) [LB90, 2-(2-((1-methyl-9-(1-methyl-1H-pyrazol-4-yl)-6,7-dihydro-5H-benzo[c][1,2,3]triazolo[1,5-a]azepin-7-yl)amino)phenoxy)ethanol], the Ki was 134 nM at BRD4 BD1 protein and 16.5 nM at BRD4 BD2 protein. In test [1] (Homo sapiens, MM1.S, 96 h), this compound yielded an IC50 of 51.9 nM.

In the case of `Cc1nnn2c1-c1ccc(-c3cnn(C)c3)cc1C(Nc1cccc3cccnc13)CC2` (stereo not shown) [LB91, 1-methyl-9-(1-methyl-1H-pyrazol-4-yl)-N-(quinolin-8-yl)-6,7-dihydro-5H-benzo[c][1,2,3]triazolo[1,5-a]azepin-7-amine], the Ki is 81.4 nM at BRD4 BD1 protein and 11.6 nM at BRD4 BD2 protein. For the same compound, the IC50 in test [1] (Homo sapiens, MM1.S, 96 h) amounted to 13.4 nM.

Consider `COC(=O)c1cccc(NC2CCn3nnc(C)c3-c3ccc(-c4cnn(C)c4)cc32)c1` (stereo not shown) [LB92, methyl 3-((1-methyl-9-(1-methyl-1H-pyrazol-4-yl)-6,7-dihydro-5H-benzo[c][1,2,3]triazolo[1,5-a]azepin-7-yl)amino)benzoate], for which the Ki was 133 nM at BRD4 BD1 protein and 17.9 nM at BRD4 BD2 protein. In test [1] (Homo sapiens, MM1.S, 96 h), this compound had an IC50 of 121 nM.

For the compound `Cc1nnn2c1-c1ccc(-c3cnn(C)c3)cc1C(Nc1cccc(C(=O)O)c1)CC2` (stereo not shown) [LB97, 3-((1-methyl-9-(1-methyl-1H-pyrazol-4-yl)-6,7-dihydro-5H-benzo[c][1,2,3]triazolo[1,5-a]azepin-7-yl)amino)benzoic acid], the Ki was 355 nM on BRD4 BD1 protein and 27.9 nM on BRD4 BD2 protein. For the same compound, half-maximal inhibition in test [1] (Homo sapiens, MM1.S, 96 h) (IC50) required 8160 nM.

`Cc1nnn2c1-c1ccc(-c3cnn(C)c3)cc1C(Nc1ccc3[nH]ccc3c1)CC2` (stereo not shown) [LB98, N-(1H-indo1-5-yl)-1-methyl-9-(1-methyl-1H-pyrazol-4-yl)-6,7-dihydro-5H-benzo[c][1,2,3]triazolo[1,5-a]azepin-7-amine]: the Ki at BRD4 BD1 protein is 52.4 nM; on BRD4 BD2 protein, 9.1 nM. In test [1] (Homo sapiens, MM1.S, 96 h), this compound returned an IC50 of 21.5 nM.

On to `Cc1nnn2c1-c1ccccc1C(Nc1cccc3cnccc13)CC2` (stereo not shown) [LB103, N-(isoquinolin-5-yl)-1-methyl-6,7-dihydro-5H-benzo[c][1,2,3]triazolo [1,5-a]azepin-7-amine], for which the Ki at BRD4 BD1 protein is 607 nM; at BRD4 BD2 protein it was 95.2 nM. Further, 389 nM corresponded to half-maximal inhibition in test [1] (Homo sapiens, MM1.S, 96 h) (IC50).

With `Cc1nnn2c1-c1ccc(-c3cnn(C)c3)cc1C(Nc1ccc3cc[nH]c3c1)CC2` (stereo not shown) [LB113, N-(1H-indo1-6-yl)-1-methyl-9-(1-methyl-1H-pyrazol-4-yl)-6,7-dihydro-5H-benzo[c][1,2,3]triazolo[1,5-a]azepin-7-amine], the Ki on BRD4 BD1 protein is 38 nM; on BRD4 BD2 protein, 7.4 nM. This compound registered an IC50 in test [1] (Homo sapiens, MM1.S, 96 h) of 11.2 nM.

For `Cc1nnn2c1-c1ccc(-c3cnn(C)c3)cc1C(Nc1cccc3[nH]ccc13)CC2` (stereo not shown) [LB114, N-(1H-indo1-4-yl)-1-methyl-9-(1-methyl-1H-pyrazol-4-yl)-6,7-dihydro-5H-benzo[c][1,2,3]triazolo[1,5-a]azepin-7-amine], the Ki at BRD4 BD1 protein is 45.3 nM; at BRD4 BD2 protein, 8.8 nM. In test [1] (Homo sapiens, MM1.S, 96 h), this compound showed an IC50 of 1.2 nM.

As for `CNC(=O)c1ccc(NC2CCn3nnc(C)c3-c3ccc(-c4cnn(C)c4)cc32)cc1` (stereo not shown) [LB128], the Ki is 89.3 nM on BRD4 BD1 protein and 22.8 nM on BRD4 BD2 protein. Further, the IC50 in test [1] (Homo sapiens, MM1.S, 96 h) was 153 nM.

`Cc1nnn2c1-c1ccc(-c3cnn(C)c3)cc1C(Nc1ccc(CN(C)C)cc1)CC2` (stereo not shown) [LB138, N-(4-((dimethylamino)methyl)phenyl)-1-methyl-9-(1-methyl-1H-pyrazol-4-yl)-6,7-dihydro-5H-benzo[c][1,2,3]triazolo[1,5-a]azepin-7-amine]: the Ki at BRD4 BD1 protein was 1040 nM; on BRD4 BD2 protein it was 203 nM. Further, half-maximal inhibition in test [1] (Homo sapiens, MM1.S, 96 h) (IC50) was put at 961 nM.

With `Cc1nnn2c1-c1ccc(-c3cnn(C)c3)cc1C(Nc1ccc(CCN(C)C)cc1)CC2` (stereo not shown) [LB139, N-(4-(2-(dimethylamino)ethyl)phenyl)-1-methyl-9-(1-methyl-1H-pyrazol-4-yl)-6,7-dihydro-5H-benzo[c][1,2,3]triazolo[1,5-a]azepin-7-amine], the Ki at BRD4 BD1 protein was 124 nM; at BRD4 BD2 protein, 48.3 nM. The same compound registered an IC50 in test [1] (Homo sapiens, MM1.S, 96 h) of 120 nM.

Turning to `CNC(=O)Cc1ccc(NC2CCn3nnc(C)c3-c3ccc(-c4cnn(C)c4)cc32)cc1` (stereo not shown) [LB142], the Ki on BRD4 BD1 protein was 69 nM; at BRD4 BD2 protein, 11.4 nM. Moreover, half-maximal inhibition in test [1] (IC50) required 114 nM.

Regarding `Cc1nnn2c1-c1ccc(-c3cnn(C)c3)cc1C(Nc1ccc(O)cc1)CC2` (stereo not shown) [LB143, 4-((1-methyl-9-(1-methyl-1H-pyrazol-4-yl)-6,7-dihydro-5H-benzo[c][1,2,3]triazolo[1,5-a]azepin-7-yl)amino)phenol], the Ki is 78.3 nM on BRD4 BD1 protein and 9.61 nM on BRD4 BD2 protein. The same compound yielded an IC50 in test [1] (Homo sapiens, MM1.S, 96 h) of 118 nM.

For `Cc1nnn2c1-c1ccc(-c3cnn(C)c3)cc1C(Nc1cccc(N(C)C)c1)CC2` (stereo not shown) [LB152, N^1,N^1-dimethyl-N^3-(1-methyl-9-(1-methyl-1H-pyrazol-4-yl)-6,7-dihydro-5H-benzo[c][1,2,3]triazolo[1,5-a]azepin-7-yl)benzene-1,3-diamine], the Ki was 75.5 nM on BRD4 BD1 protein and 16.7 nM on BRD4 BD2 protein. In test [1] (Homo sapiens, MM1.S, 96 h), the IC50 was found to be 26.2 nM.

Consider `Cc1nnn2c1-c1ccc(-c3cnn(C)c3)cc1C(Nc1ccccc1O)CC2` (stereo not shown) [LB170, 2-((1-methyl-9-(1-methyl-1H-pyrazol-4-yl)-6,7-dihydro-5H-benzo[c][1,2,3]triazolo[1,5-a]azepin-7-yl)amino)phenol], for which the Ki is 74.8 nM at BRD4 BD1 protein and 4.78 nM at BRD4 BD2 protein. For the same compound, inhibition in test [1] (Homo sapiens, MM1.S, 96 h) was half-maximal at 152 nM (IC50).

In the case of `Cc1nnn2c1-c1ccc(-c3cnn(C)c3)cc1C(Nc1cccc(O)c1)CC2` (stereo not shown) [LB171, 3-((1-methyl-9-(1-methyl-1H-pyrazol-4-yl)-6,7-dihydro-5H-benzo[c][1,2,3]triazolo[1,5-a]azepin-7-yl)amino)phenol], the figures for the Ki at BRD4 BD1 protein and on BRD4 BD2 protein were 26.1 nM and 7.06 nM, respectively. Moreover, the IC50 in test [1] (Homo sapiens, MM1.S, 96 h) worked out at 22.8 nM; in test [1] it was 20.8 nM.
